# Results reported in patent US9364488B2, “Myelin regeneration with androgens” (priority 2011, dated 2016).
# “Also recorded” adds a separate entry of the source.
# Legend:
# [1] = molecular target: estrogen receptor beta (ERβ) (Homo sapiens, UniProt Q92731); conditions: reference 16; cited from earlier work
# [2] = mouse, in vivo, sc
# [3] = test system: corpus callosum axons of cuprizone-intoxicated mice; assay: Remyelination of corpus callosum after demyelination induced by cuprizone intoxication; assay type: in vivo; conditions: for remyelination of corpus callosum (myelin basic protein staining, oligodendrocytes): 6 weeks of treatment with subcutaneous silastic implants after 12 weeks of cuprizone intoxication; for promyelinating effect in vivo after demyelination induced by cuprizone intoxication (summary statement): male and female animals; for remyelinating effect in testicular feminized mice: mice devoid of functional androgen receptors due to a gene mutation
# Text: In Figures b, d and f, are shown representative images of immunostaining of mouse corpus callosum with anti-MBP antibody.
# [4] = MENT level in plasma of castrated male mice with subcutaneous silastic implants (radioimmunoassay); assay type: in vivo; conditions: mean of 8 samples, SD 0.87
# Text: In additional experiments, the level of MENT which was induced in the plasma of castrated male mice based on subcutaneous silastic implants, as determined by radioimmunoassay, and which included a myelin response, was as follows: […]
# [5] = test system: oligodendrocyte progenitors; assay: Proliferation and maturation of oligodendrocyte progenitors
# [6] = test system: activated microglial cells in corpus callosum; assay: Microglial responses and astrogliosis after cuprizone intoxication; conditions: 9 weeks of treatment after 12 weeks of cuprizone intoxication, castrated males
# [7] = test system: organotypic cultures of cerebellar slices
# Sequence of estrogen receptor beta (ERβ) (Q92731 whole entry, species assumed): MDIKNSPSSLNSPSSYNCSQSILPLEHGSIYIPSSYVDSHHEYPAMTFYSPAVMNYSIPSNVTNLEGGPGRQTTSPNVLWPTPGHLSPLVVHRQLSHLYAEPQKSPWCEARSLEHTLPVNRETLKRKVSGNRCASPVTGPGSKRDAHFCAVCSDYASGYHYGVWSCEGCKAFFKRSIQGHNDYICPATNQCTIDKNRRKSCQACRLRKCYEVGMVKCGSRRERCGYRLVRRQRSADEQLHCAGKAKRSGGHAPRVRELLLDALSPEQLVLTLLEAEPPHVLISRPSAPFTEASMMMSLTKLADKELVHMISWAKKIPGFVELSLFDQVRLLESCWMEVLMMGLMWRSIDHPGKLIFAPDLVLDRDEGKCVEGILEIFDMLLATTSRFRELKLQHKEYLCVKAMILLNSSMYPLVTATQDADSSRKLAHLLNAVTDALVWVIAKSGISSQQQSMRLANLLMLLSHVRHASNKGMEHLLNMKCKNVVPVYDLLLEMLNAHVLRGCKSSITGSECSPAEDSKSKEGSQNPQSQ
compound,measurement,setting,value
"C[C@]12CC[C@H](O)C[C@@H]1CC[C@@H]1[C@@H]2CC[C@]2(C)[C@@H](O)CC[C@@H]12 [3βAdiol, 5α-androstane-3β,17β-diol]",binding to estrogen receptor beta (ERβ),[1],strongly binds
"C[C@]12CC[C@@H]3c4ccc(O)cc4CC[C@H]3[C@@H]1CC[C@@H]2O [Estradiol, estradiol]",Brain Level,[2]; male,0.36 ± 0.04 ng/g
same,PLASMA LEVEL,[2]; male,0.39 ± 0.07 ng/mL
same,levels produced in plasma and brain tissue by the implants,[2],high physiological levels
C[C@]12CCC(=O)C[C@@H]1CC[C@@H]1[C@@H]2CC[C@]2(C)[C@@H](O)CC[C@@H]12 [5α-dihydrotestosterone],"remyelination of corpus callosum (myelin basic protein staining, oligodendrocytes)",[3],promotion of remyelination
same,promyelinating effect in vivo after demyelination induced by cuprizone intoxication (summary statement),[3],mimicked by 5α-dihydrotestosterone
C[C@@H]1CC2=CC(=O)CC[C@@H]2[C@H]2CC[C@]3(C)[C@@H](O)CC[C@H]3[C@@H]21 [MENT],mean MENT plasma level,[4],2.12 ng/mL
same,"remyelination of corpus callosum (myelin basic protein staining, oligodendrocytes)",[3],promotion of remyelination
same,promyelinating effect in vivo after demyelination induced by cuprizone intoxication (summary statement),[3],also observed
same,remyelination after lysolecithin-induced demyelination,mouse spinal cord,can be mimicked by MENT
"C[C@]12CC[C@H]3[C@@H](CCC4=CC(=O)CC[C@@]43C)[C@@H]1CC[C@@H]2O [Testosterone, testosterone]","remyelination of corpus callosum (myelin basic protein staining, oligodendrocytes)",[3],Strong remyelination
same,remyelinating effect in aromatase knockout mice,"[3]; aromatase knockout mice, cuprizone model",loses its efficiency; also recorded: strongly reduced; also recorded: diminished
same,promyelinating effect in vivo after demyelination induced by cuprizone intoxication (summary statement),[3],very strong promyelinating effect
same,remyelinating effect in testicular feminized mice,[3],not observed
same,remyelinating effect in testicular feminized mice,[3]; listed as testosterone,eliminated
same,replenishment of corpus callosum fibers by oligodendrocytes,[3]; silastic implants for 3 to 6 weeks after termination of 12 week cuprizone diet,replenished by oligodendrocytes forming new myelin sheaths
same,proliferation and maturation of oligodendrocyte progenitors,[5],promotes the proliferation and maturation
same,number of activated microglial cells,[6],return to normal levels; also recorded: significantly decreased
same,promyelinating effect in vitro,[7],very strong promyelinating effect
